Laboratory results reported in paper PMC2951365, “Structural Transformation of the Tandem Ubiquitin-Interacting Motifs in Ataxin-3 and Their Cooperative Interactions with Ubiquitin Chains” (PLoS ONE, 2010).
pKd: −log10 of the molar value. Where two headings read alike, the source gives them in different places.

What was measured:
Ub [1] = biological target: T1, Ub (Homo sapiens, UniProt P0CG48); details: cited from earlier work
T1 construct: gene UBC; 15N-labeled Ub; cDNA encoding Ub cloned into pET-3a, expressed in E. coli
Excerpt: (§1) There are about 20∼50 residues inserted in between two UIMs of S5a and Vps27, but the linker region between the two UIMs of AT3 is very short. These adjoining UIM motifs in AT3 raise a possible cooperativity for binding with Ub. Our structure determination and titration experiments reveal that the individual UIMs of AT3 can bind Ub respectively but with lower affinities. […] It seems that the cooperative interaction of AT3-UIM12 with diUb or polyUb is more remarkable than that with monoUb (Supplemental Fig. S7). […] Therefore, the altered affinities of AT3-UIM12 for monoUb or diUb may result from structural transformation of the linker region. The backbone dynamics provides further evidence for the conformational change in the linker region, which possibly allows cooperative interaction with Ub.

Ub [2] = details: cited from earlier work
Excerpt: as §1

Ub [3] = biological target: T1, Ub; details: read-out: K D,app
Protocol: ^15N-Ub at a molar concentration of ∼0.2 mM was titrated with increasing amount of UIM peptides or its mutants. A series of ^1H-^15N HSQC spectra of Ub were obtained and the chemical shift changes were measured for each molar ratio. […] The combined average chemical shift changes (Δδave) were calculated as Δδave = [(0.2*ΔδN)^ 2 + (ΔδHN)^ 2]^1/2, where ΔδHN and ΔδN are the chemical shift changes in the ^1H and ^15N dimensions, respectively. […] The dissociation constant (K D) for the UIM-Ub binding was obtained by fitting the titration curves [61].
^15N- or ^15N/^13C-labeled samples (∼1 mM) were dissolved in a PBS buffer (20 mM phosphate, 100 mM NaCl, pH 6.5) containing 8% or 100% D2O and 0.02% (w/v) NaN3. […] All the NMR experiments were performed at 25°C on a Varian UNITY INOVA 600 MHz spectrometer equipped with three RF channels and a triple-resonance pulsed-field gradient probe.

Row | Substance | pKd (Ub [1]) | pKd (Ub [2]) | also measured
1 | S5a UIM2 (281–301 in alignment); construct not told | 4.14 |  | 
2 | Vps27p UIM1 (257–277 in alignment); construct not told |  | 3.56 | 
3 | ataxin-3 residues 335–354; GB1 fusion [AT3-UIM3] |  |  | pKd (Ub [3]): < 2.52
4 | S5a UIM1 (210–230 in alignment); construct not told | ~3.46 |  | 
5 | Vps27p UIM2 (300–320 in alignment); construct not told |  | 3.93 | 
